From US7592458B2, “Dermal anesthetic compounds and pharmaceutical compositions for inducing local anesthesia and mitigating neuropathic pain” (priority 2006, dated 2009)
Where a name gives a salt, the structure may show the parent alone. Marks after values point to notes of the source that are not given here.

Test system: guinea pigs
Test: Local anesthetic activity (infiltration anesthesia), pin-prick method after intradermal injection
Type: in vivo, guinea pig
Settings: 0.1 ml intradermal

Row | Compound | Dermal anesthesia after intradermal injection: non-responding pinpricks of 36 (0.05%, 15 min) | Dermal anesthesia after intradermal injection: non-responding pinpricks of 36 (0.05%, 30 min) | Dermal anesthesia after intradermal injection: non-responding pinpricks of 36 (0.05%, 60 min) | Dermal anesthesia after intradermal injection: non-responding pinpricks of 36 (0.05%, 90 min) | Dermal anesthesia after intradermal injection: non-responding pinpricks of 36 (0.05%, 120 min) | Dermal anesthesia after intradermal injection: non-responding pinpricks of 36 (0.10%, 15 min) | Dermal anesthesia after intradermal injection: non-responding pinpricks of 36 (0.10%, 30 min) | Dermal anesthesia after intradermal injection: non-responding pinpricks of 36 (0.10%, 60 min) | Dermal anesthesia after intradermal injection: non-responding pinpricks of 36 (0.10%, 90 min) | Dermal anesthesia after intradermal injection: non-responding pinpricks of 36 (0.10%, 120 min) | other results
1 | CCCCN1CCCCC1CCN(c1ccccc1)C1CCc2ccccc2C1 (stereo not drawn) [Bu-CLAC-34•HCl] | 36/36 | 36/36 | 36/36 | 36/36 | 36/36 | 36/36 | 36/36 | 36/36 | 36/36 | 36/36 | 
2 | c1ccc(N(CCC2CCCCN2)C2CCc3ccccc3C2)cc1 (stereo not drawn) [CLAC-34•HCl] | 35/36* | 36/36** | 6/36 | 36/36 | 36/36 | 36/36 | 36/36 | 36/36 | 36/36 | 36/36 | 
3 | CCCN(CCC)CCN(c1ccccc1)C1CCc2ccccc2C1 (stereo not drawn) [CLAC-PP•HCl] | 36/36 | 36/36 | 36/36 | 36/36 | 36/36 | 36/36 | 36/36 | 36/36 | 36/36 | 36/36 | 
4 | CCN(CC)CC(=O)Nc1c(C)cccc1C [Lidocaine.HCl, lidocaine, reference compound] |  |  |  |  |  |  |  |  |  |  | Dermal anesthesia after intradermal injection: non-responding pinpricks of 36 (0.25%, 15 min): 31/36; Dermal anesthesia after intradermal injection: non-responding pinpricks of 36 (0.25%, 30 min): 21/36; Dermal anesthesia after intradermal injection: non-responding pinpricks of 36 (0.25%, 60 min): 6/36; Dermal anesthesia after intradermal injection: non-responding pinpricks of 36 (0.25%, 90 min): 4/36; Dermal anesthesia after intradermal injection: non-responding pinpricks of 36 (0.25%, 120 min): 1/36; Dermal anesthesia after intradermal injection: non-responding pinpricks of 36 (0.50%, 15 min): 24/36; Dermal anesthesia after intradermal injection: non-responding pinpricks of 36 (0.50%, 30 min): 18/36; Dermal anesthesia after intradermal injection: non-responding pinpricks of 36 (0.50%, 60 min): 11/36; Dermal anesthesia after intradermal injection: non-responding pinpricks of 36 (0.50%, 90 min): 10/36; Dermal anesthesia after intradermal injection: non-responding pinpricks of 36 (0.50%, 120 min): 9/36; Dermal anesthesia after intradermal injection: non-responding pinpricks of 36 (1.00%, 15 min): 32/36; Dermal anesthesia after intradermal injection: non-responding pinpricks of 36 (1.00%, 30 min): 28/36; Dermal anesthesia after intradermal injection: non-responding pinpricks of 36 (1.00%, 60 min): 9/36; Dermal anesthesia after intradermal injection: non-responding pinpricks of 36 (1.00%, 90 min): 8/36; Dermal anesthesia after intradermal injection: non-responding pinpricks of 36 (1.00%, 120 min): 6/36
